In patent US11613531B2, “Inhibitors of RHO associated coiled-coil containing protein kinase” (Kadmon Corporation, LLC, priority 2017, dated 2023):
“Also recorded” adds a separate entry of the source. Where two headings read alike, the source gives them in different places.

Experiments:
[1] = molecular target: Recombinant ROCK1 (amino acids 1-535) (Homo sapiens (Human), UniProt Q13464); test: Z′-Lyte kinase assay, ROCK1; assay type: biochemical; conditions: for inhibition at 0.5 µM: 0.5 μM compound
Method in brief: (§1)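 IC50s derive from nonlinear curve fits over a 9-point, 2-fold dilution series, with single-point inhibition at 1 μM expressed relative to DMSO. Activity of truncated human ROCK1 (residues 1-535) and ROCK2 (residues 1-552) measured with the Z′-Lyte kinase format.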

[2] = tested on: human ACTA2 gene promoter luciferase reporter in NIH3T3 cells; test: NIH3T3 Acta2-promoter driven-luciferase assay; assay type: cell-based; conditions: NIH3T3, 24 h, read-out: NIH3T3 Acta2-luc, IC50
Method in brief: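 NIH3T3 cells stably carrying a human ACTA2 promoter (−1000-1 bp)-luciferase reporter, grown to confluence, treated 24 hr with compound plus TGFβ1 at 9-point serial dilution. Luciferase read after lysis; IC50 by nonlinear regression.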

[3] = molecular target: Recombinant ROCK2 (amino acids 1-552) (Homo sapiens (Human), UniProt O75116); test: Z′-Lyte kinase assay, ROCK2; assay type: biochemical; conditions: for inhibition at 0.5 µM: 0.5 μM compound
Method in brief: as §1

[4] = tested on: ppMlc (T18/S19) levels in A7R5 cells; test: A7R5 in-cell ELISA (pMLC); assay type: cell-based, Rat; conditions: Rattus norvegicus, A7R5, A7R5 cells; for inhibition at 10 µM: 10 μM compound
Method in brief: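 Cellular IC50 came from a nonlinear regression fit of ppMlc (T18/S19) signal, read by colorimetric in-cell ELISA on fixed cells. Rat A7R5 aortic smooth muscle cells had been exposed for 90 min to compounds in 9-point 2-fold serial dilution, 24 h after seeding.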

[5] = tested on: MKL1 in CCD18Lu human lung fibroblasts; test: MKL1 nuclear translocation, immunofluorescent staining; assay type: cell-based; conditions: 3 μM, 3 hours
Experimental: FIG. 3. Immunofluorescent staining of MKL1 in human lung fibroblasts. CCD18Lu human lung fibroblasts were treated with compounds for 3 hours and fixed and stained for MKL1, F-actin and DAPI. […] The Example 228 compound abolished nuclear accumulation of MKL1 in cultured human lung fibroblasts. CCD18Lu human lung fibroblasts were treated with the ROCK inhibitor (3 μM) for 3 hours and fixed and stained for MKL1, F-actin and DAPI.

[6] = tested on: CCD18lu human lung fibroblasts; test: F-actin stress fiber formation (phalloidin staining); assay type: cell-based
ppMLC in SVEC4-10 cells = test: Thrombin induced MLC phosphorylation western blot; assay type: cell-based, Mouse; conditions: SVEC4-10 endothelial cells, increasing doses of thrombin, 10 min
Experimental: FIG. 7b. […] Mouse endothelial cell line SVEC4-10 cells were cultured and treated with increasing doses of thrombin in combination with ROCKi for 10 min. ppMLC signal was detected by western blot. […] Mouse endothelial cell line SVEC4-10 was cultured and treated with increasing doses of thrombin in combination with ROCK inhibitor for 10 min. ppMLC signal was detected by western blot. […] Collectively, the above data strongly supports the ROCK inhibitors of the invention as an effective intervention in fibrotic diseases.

Detroit 562 cells = test: Integrin αvβ6 mediated latent TGFβ activation (phospho-Smad2/3); assay type: cell-based; conditions: with thrombin, 2 hours
Experimental: FIG. 5. ROCK inhibitor (Example 228) blocked integrin αvβ6 mediated latent TGFβ activation. Integrin αvβ6 positive cell line Detroit 562 cells were plated and treated with compounds in combination with parl ligand thrombin for 2 hours, lysed and activation of TGFβ signaling was detected by phosphorylation of transcription factors Smad2/3. Integrin αvβ6 mediated latent TGFβ activation requires ROCK activity (Jenkins et al., 2006). Activation of the latent TGF3 complex is a key step in regulating the biological availability of this molecule and its subsequent activities. Under tissue injury, extracellular protease cleavage of cell membrane receptor protease-activated receptor 1 (parl) leads to activation of Rho/ROCK, which in turn activates latent ECM associated TGFβ through cell membrane integrin αvβ6. […] Integrin αvβ6 positive cell line Detroit 562 cells were plated and treated with compounds in combination with parl ligand thrombin for 2 hours, lysed and activation of TGFβ signaling was detected by phosphorylation of transcription factors Smad2/3.

[7] = 9 points 2-fold serial dilution
[8] = NIH3T3 cells, plus TGFβ1 for 24 hr
[9] = read-out: pMLC % inh A7R5 @ [conc]
[10] = read-out: ROCK1 % inh. @ [conc]
[11] = read-out: ROCK2 % inh. @ [conc]

Recombinant ROCK2 (amino acids 1-552), sequence (O75116 1-552): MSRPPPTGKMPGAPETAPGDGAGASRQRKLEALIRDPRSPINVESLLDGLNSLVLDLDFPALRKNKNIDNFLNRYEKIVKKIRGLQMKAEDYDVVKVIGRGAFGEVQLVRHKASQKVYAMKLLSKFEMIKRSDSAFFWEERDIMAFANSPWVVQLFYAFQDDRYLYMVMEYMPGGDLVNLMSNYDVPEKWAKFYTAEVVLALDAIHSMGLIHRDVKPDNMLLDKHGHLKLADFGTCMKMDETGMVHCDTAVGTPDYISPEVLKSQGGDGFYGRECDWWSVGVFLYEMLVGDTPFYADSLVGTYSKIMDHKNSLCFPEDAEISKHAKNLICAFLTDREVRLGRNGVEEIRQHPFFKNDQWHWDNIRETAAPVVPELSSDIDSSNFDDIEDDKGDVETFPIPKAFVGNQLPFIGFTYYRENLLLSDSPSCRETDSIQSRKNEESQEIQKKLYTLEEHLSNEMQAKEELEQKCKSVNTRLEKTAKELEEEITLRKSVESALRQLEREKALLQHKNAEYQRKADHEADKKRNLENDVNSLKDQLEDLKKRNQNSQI
Recombinant ROCK1 (amino acids 1-535), sequence (Q13464 1-535): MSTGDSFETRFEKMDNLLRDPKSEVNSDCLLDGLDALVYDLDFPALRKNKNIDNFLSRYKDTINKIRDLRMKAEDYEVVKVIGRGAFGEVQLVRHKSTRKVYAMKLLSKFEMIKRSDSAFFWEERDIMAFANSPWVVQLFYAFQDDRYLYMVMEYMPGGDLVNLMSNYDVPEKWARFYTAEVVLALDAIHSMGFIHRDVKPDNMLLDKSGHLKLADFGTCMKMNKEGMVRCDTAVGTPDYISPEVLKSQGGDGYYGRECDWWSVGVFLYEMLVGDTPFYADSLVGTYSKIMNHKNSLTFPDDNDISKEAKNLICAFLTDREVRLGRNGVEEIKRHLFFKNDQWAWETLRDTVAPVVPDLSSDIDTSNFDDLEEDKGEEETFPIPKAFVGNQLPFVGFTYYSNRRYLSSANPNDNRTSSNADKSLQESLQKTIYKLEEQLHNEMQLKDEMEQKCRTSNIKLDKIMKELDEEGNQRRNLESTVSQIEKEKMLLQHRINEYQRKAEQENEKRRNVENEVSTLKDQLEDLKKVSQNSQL

Row | Compound | IC50 [1, 7] | IC50 [2, 8] | IC50 [3, 7] | IC50 ([4]; ppMlc (T18/S19)) | inhibition at 0.5 µM [1, 10] | IC50 ([2]; with TGFβ1, 24 hr) | IC50 [3] | inhibition at 0.5 µM [3, 11] | IC50 [4] | also measured
1 | Fc1cnc(N2C3CNCC2C3)nc1Nc1ccc2[nH]ncc2c1 [Example 220, N-(2-(3,6-diazabicyclo[3.1.1]heptan-6-yl)-5-fluoropyrimidin-4-yl)-1H-indazol-5-amine] | 3.1 nM | 167 nM | 5.9 nM | 74 nM | – | – | – | – | – | inhibition at 1 µM ([4]; 1 μM compound, read-out: pMLC % inh A7R5 @ [conc]): 45.1%
2 | c1cc(Nc2ccc3[nH]ncc3c2)nc(N2C3CCC2CNC3)n1 [Example 228, N-(2-(3,8-diazabicyclo[3.2.1]octan-8-yl)pyrimidin-4-yl)-1H-indazol-5-amine] | 4 nM | 151 nM | 3 nM | 69 nM | – | – | – | – | – | inhibition at 3 µM ([1]; 3 μM compound, read-out: ROCK1 % inh. @ [conc]): 98.5%; nuclear accumulation of MKL1 [5]: abolished; stress fiber formation ([5]; F-actin staining): efficiently cleared; F-actin stress fiber formation [6]: phenotypically copied gene silencing; also recorded: inhibited; thrombin induced phosphorylation of MLC (ppMLC in SVEC4-10 cells): potently inhibited; integrin αvβ6 mediated latent TGFβ activation (phosphorylation of Smad2/3) (Detroit 562 cells): blocked; inhibition at 3 µM ([3]; 3 μM compound, read-out: ROCK2 % inh. @ [conc]): 101%; inhibition at 10 µM [4, 9]: 83%
3 | CC1CNCCN(c2nccc(Nc3ccc4[nH]ncc4c3)n2)C1 (stereo not shown) [Example 237, N-(2-(6-methyl-1,4-diazepan-1-yl)pyrimidin-4-yl)-1H-indazol-5-amine] | 63 nM | 2350 nM | 104 nM | 423 nM | – | – | – | – | – | inhibition at 10 µM [4, 9]: 68.2%
4 | Cc1nc(N2C3CCC2CNC3)nc(Nc2ccc3[nH]ncc3c2)c1F [Example 302, N-(2-(3,8-diazabicyclo[3.2.1]octan-8-yl)-5-fluoro-6-methylpyrimidin-4-yl)-1H-indazol-5-amine] | – | – | – | – | 99% | 229 nM | 2.2 nM | 98% | 35 nM | –
5 | CC(=O)N1Cc2nc(N3C4CCC3CNC4)nc(Nc3ccc4[nH]ncc4c3)c2C1 [Example 314, 1-(4-((1H-indazol-5-yl)amino)-2-(3,8-diazabicyclo[3.2.1]octan-8-yl)-5,7-dihydro-6H-pyrrolo[3,4-d]pyrimidin-6-yl)ethan-1-one] | – | – | – | – | 81% | > 5000 nM | 80 nM | 94% | > 5000 nM | –
6 | c1cc(-c2cn[nH]c2)ccc1Nc1nc(N2C3CNCC2C3)nc2c1COC2 [Example 316, N-(4-(1H-pyrazol-4-yl)phenyl)-2-(3,6-diazabicyclo[3.1.1]heptan-6-yl)-5,7-dihydrofuro[3,4-d]pyrimidin-4-amine] | – | – | – | – | 90% | > 10000 nM | 27 nM | 85% | 2420 nM | –
7 | c1cc(-c2cn[nH]c2)ccc1Nc1nc(N2C3CNCC2C3)nc2c1COCC2 [Example 317, N-(4-(1H-pyrazol-4-yl)phenyl)-2-(3,6-diazabicyclo[3.1.1]heptan-6-yl)-7,8-dihydro-5H-pyrano[4,3-d]pyrimidin-4-amine] | – | – | – | – | 70% | > 10000 nM | 38 nM | 75% | > 10000 nM | –
8 | Oc1nc(N2C3CCC2CNC3)nc(Nc2ccc3[nH]ncc3c2)c1F [Example 320, 6-((1H-indazol-5-yl)amino)-2-(3,8-diazabicyclo[3.2.1]octan-8-yl)-5-fluoropyrimidin-4-ol] | – | – | – | – | 95% | > 5000 nM | 18 nM | 97% | > 5000 nM | IC50 [1]: 8.7 nM
9 | COc1nc(N2C3CCC2CNC3)nc(Nc2ccc3[nH]ncc3c2)c1Cl [Example 321, N-(2-(3,8-diazabicyclo[3.2.1]octan-8-yl)-5-chloro-6-methoxypyrimidin-4-yl)-1H-indazol-5-amine] | – | – | – | – | 98% | 114 nM | 8 nM | 100% | 74 nM | –
10 | CN(C)c1cc(Nc2ccc3[nH]ncc3c2)nc(N2C3CCC2CNC3)n1 [Example 336, 2-(3,8-diazabicyclo[3.2.1]octan-8-yl)-N^4-(1H-indazol-5-yl)-N^6,N^6-dimethylpyrimidine-4,6-diamine] | – | – | – | – | 99% | 116 nM | 3.6 nM | 103% | 25 nM | –
